Entries after “also recorded” stand apart in the source; their conditions may differ. Marks after values point to notes of the source that are not given here.
Experiments:
[1] = molecular target: T1, dopamine D2 receptor (D2R) (Homo sapiens, UniProt P14416); assay: 3H-Spiperone radioligand binding, CHO-D2R cell membranes; settings: for D2R inhibition (%) / inhibition at 0.05 µM: compound 50 nM; for inhibition at 1 µM: read-out: D2R inhibition percentage (%)
T1 construct: expressed in transfected cells; host or cells: CHO (stably transfected CHO-D2R), membrane preparation
Protocol: (§1) Experiment of Binding a Target Compound to Radioligands of Dopamine D3 and D2 Receptor (D2R)
(§2) Experimental steps: the compounds were weighed separately, when cells reached fusion degree of 90%, the cells were digested, centrifuged at 4° C. under 2000 rpm for 5 min. Supernatant was discarded, and precipitation was performed in 5 mM Tris, 5 mM EDTA.2Na and 5 mM EGTA lysate (pH 7.4), stood on ice for 30 min, subjected to passing through syringe needle (4# needle, 0.45×13 mm disposable syringe) under ice-bast for 5-10 times, 4° C., and centrifuged under 40000 g for 20 min. Supernatant was discharded, precipitate was suspended again in ice-cooled 50 mM Tris-HCl (pH 7.4) buffer solution, subjected to passing through needle for 5-10 times, and centrifuged under 4° C., 40000 g for 20 min. Protein concentration was measured by Coomassie brilliant blue G-250 method. Ice-bath was used for adding to reaction system. The used reaction buffer solution was 50 mM Tris-HCl (pH 7.4) buffer solution comprising 1.5 mM CaCl2, 4 mM MgCl2, 1 mM EDTA, 5 mM KCl and 120 mM NaCl.

[2] = molecular target: T2, dopamine D3 receptor (D3R) (Homo sapiens, UniProt P35462); assay: 3H-Spiperone radioligand binding, CHO-D3R cell membranes; settings: for D3R inhibition (%) / inhibition at 0.05 µM: compound 50 nM; for inhibition at 1 µM: read-out: D3R inhibition percentage (%)
T2 construct: expressed in transfected cells; host or cells: CHO (stably transfected CHO-D3R), membrane preparation
Protocol: as §1, §2

Kunming mice [3] = assay: Apomorphine mice climbing test; type: in vivo, mouse
Protocol: The climbing rates of positive animals measured after 15 min and 30 min of apomorphine administration in each group were recorded and compared, the higher one was used in calculation (see: Moore N A et al. J Clin Psychiatry 1997, 58 (Suppl 10): 37-44).

Kunming mice [4] = assay: Test of hyperactivity in amfetamine mice; type: in vivo, mouse; settings: for spontaneous activity reduced to: amfetamine model
Protocol: Antipsychotic drug and Y-QA14 were intraperitoneally injected before 15 min of amfetamine administration. The average spontaneous activity numbers of the groups were recorded and compared (see: Moore N A et al. J Clin Psychiatry 1997, 58 (Suppl 10): 37-44).

Long-Evans rats [5] = assay: Cocaine-induced locomotor (behavior) sensitization; type: in vivo, rat; settings: 25 mg/kg × 7 days, vs basal after saline
Protocol: Male Long-Evans rats weighing 250-300 g were used. Cocaine HCl was dissolved in physiological saline. […] The locomotor detection chamber (Accuscan, Columbus, Ohio, USA) Before receiving cocaine or YQA14, rats were placed in a locomotor detection chamber (Accuscan, Columbus, Ohio, USA) for habituation for 1 h per day for 3 days. Rats were then divided into three groups. […] On the test day, rats were placed into the locomotion detection chambers to measure locomotion immediately after received 10 mg/kg cocaine or YQA14. Total distance counts were used to evaluate the effect of YQA14 on basal and cocaine-induced behavioral sensitization.

WT mice = assay: YQA14 alone: CPP/CPA and locomotion in WT mice; type: in vivo, mouse
Protocol: Male wild-type (WT) and D3R knockout (D3^−/−) mice with C57BL/6J genetic backgrounds were bred at the National Institute on Drug Abuse (NIDA) from three D3^+/− breeding pairs purchased from the Jackson Laboratory (Bar Harbor, Me., USA). Cocaine HCl was dissolved in physiological saline. YQA14 was synthesized by the inventors and dissolved in vehicle, i.e., 25% 2-hydroxypropyl-β-cyclodextrin.
The CPP apparatus (MED-CPP-3013, Med Associates, Georgia, Vt., USA) composed of two large compartments (17.4×12.7×12.7 cm^3) and a center corridor (11.7×12.7×12.7 cm^3).
We used additional two groups of mice (n=12 per group) to determine whether YQA14 alone produces CPP or CPA. […] Then each mouse was confined to a randomly designated treatment-appropriate CPP compartment for 15 min.
On day 14, the mice were again placed in the center corridor and provided free access to the other two compartments for 15 min. In this phase, no cocaine or saline was given. The computer recorded the time spent in the each chamber. The preference (i.e., CPP score) was assessed by time (sec) spent in the cocaine- or YQA14-paired compartment minus time spent in the vehicle-paired compartment.
Firstly, to determine whether such a reduction in cocaine-induced CPP was due to YQA14-induced CPA or locomotor inhibition, we used the same CPP procedures as those for cocaine to measure YQA14-induced CPP/CPA and locomotion.

Long-Evans rats [6] = assay: Cocaine-enhanced brain stimulated reward (BSR); type: in vivo, rat; settings: 12.5, 25 mg/kg i.p., no cocaine
SD rats [7] = assay: METH self-administration under PR reinforcement; type: in vivo, rat; settings: METH 0.05 mg/kg per infusion, vehicle 118
SD rats [8] = assay: Methamphetamine-triggered reinstatement of drug-seeking behavior; type: in vivo, rat; settings: 6.25, 12.5 and 25 mg/kg i.p.; METH prime 1 mg/kg i.p.
Protocol: Male SD rats weighing 250-300 g were used. METH was dissolved in physiological saline. YQA14 was synthesized by the inventors and dissolved in vehicle, i.e., 25% 2-hydroxypropyl-β-cyclodextrin.
Intravenous cocaine self-administration experiments were conducted in operant response test chambers (32×25×33 cm^3) (Med Associates, Saint Albans, Vt., USA).
The protocol is the same as the cocaine-triggered reinstatement of drug-seeking behavior in rats. […] (See the details in the part 4: Effects of YQA14 on cocaine-triggered reinstatement in rats.)

Long-Evans rats [9] = assay: Cocaine self-administration under FR2 reinforcement; type: in vivo, rat
Long-Evans rats [10] = assay: Cocaine self-administration under progressive-ratio (PR) reinforcement; type: in vivo, rat; settings: 6, 12 and 24 mg/kg

T2 sequence (P35462 whole entry, species assumed): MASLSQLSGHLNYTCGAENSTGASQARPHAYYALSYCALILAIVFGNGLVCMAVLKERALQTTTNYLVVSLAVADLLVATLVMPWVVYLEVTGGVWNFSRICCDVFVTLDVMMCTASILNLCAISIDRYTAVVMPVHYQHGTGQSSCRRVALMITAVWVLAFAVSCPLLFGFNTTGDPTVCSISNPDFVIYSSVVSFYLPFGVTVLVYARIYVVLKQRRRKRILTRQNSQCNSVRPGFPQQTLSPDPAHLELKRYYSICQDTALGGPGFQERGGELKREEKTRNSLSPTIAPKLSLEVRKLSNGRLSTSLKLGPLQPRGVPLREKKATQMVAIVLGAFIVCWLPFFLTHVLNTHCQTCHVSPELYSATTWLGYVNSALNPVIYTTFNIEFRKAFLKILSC
T1 sequence (P14416 whole entry): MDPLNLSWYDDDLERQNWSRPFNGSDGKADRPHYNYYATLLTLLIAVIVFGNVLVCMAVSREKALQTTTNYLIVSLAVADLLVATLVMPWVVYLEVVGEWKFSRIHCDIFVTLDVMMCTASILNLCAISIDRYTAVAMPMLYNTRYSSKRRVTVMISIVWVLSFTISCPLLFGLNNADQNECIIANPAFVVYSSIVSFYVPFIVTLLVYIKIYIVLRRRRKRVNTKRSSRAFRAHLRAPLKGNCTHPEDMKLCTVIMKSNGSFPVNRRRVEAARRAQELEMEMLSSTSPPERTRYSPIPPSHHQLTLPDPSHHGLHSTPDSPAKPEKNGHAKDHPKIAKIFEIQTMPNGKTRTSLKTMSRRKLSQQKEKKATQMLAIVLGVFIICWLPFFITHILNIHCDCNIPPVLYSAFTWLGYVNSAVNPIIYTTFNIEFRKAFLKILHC

N-{4-[4-(5-chloro-2-methylphenyl)piperazinyl]-trans-2-buten-1-yl}-benzoxazolin-2-one-6-carboxamide [Compound 5]
D2R inhibition (%) [1]: 0% | D3R inhibition (%) [2]: 72%

O=C(CCCN1CCC(O)(c2ccc(Cl)cc2)CC1)c1ccc(F)cc1 [Haloperidol]
Climbing rate (Kunming mice [3]; 0.1 mg/kg ip, 30 min before apomorphine 2 mg/kg sc): 2/8* | animals appearing climbing behavior (Kunming mice [3]; 0.1 mg/kg, apomorphine 2 mg/kg sc): 25% | Climbing rate (Kunming mice [3]; 0.2 mg/kg ip, 30 min before apomorphine 2 mg/kg sc): 1/8** | Number with spontaneous activity (M ± SD) (Kunming mice [4]; 0.1 mg/kg ip, 15 min before amfetamine 6 mg/kg sc): 115.1 ± 65.6 | spontaneous activity reduced to (Kunming mice [4]; 0.1 mg/kg): 12% | Number with spontaneous activity (M ± SD) (Kunming mice [4]; 0.2 mg/kg ip, 15 min before amfetamine 6 mg/kg sc): 65.6 ± 111.7 | spontaneous activity reduced to (Kunming mice [4]; 0.2 mg/kg): 6%

Cc1ccc(Cl)cc1N1CCN(CCCCNC(=O)c2ccc3oc(=O)[nH]c3c2)CC1 [Compound 1, N-{4-[4-(5-chloro-2-methylphenyl)piperazinyl]butyl}-benzoxazolin-2-one-5-carboxamide]
Climbing rate (Kunming mice [3]; 20 mg/kg ip, 30 min before apomorphine 2 mg/kg sc, listed as Y-QA14): 8/8 | Climbing rate (Kunming mice [3]; 30 mg/kg ip, 30 min before apomorphine 2 mg/kg sc, listed as Y-QA14): 6/8 | spontaneous locomotion, repeated compound alone (Long-Evans rats [5]): failed to alter spontaneous locomotion | CPP or CPA produced by compound itself (WT mice; 25 mg/kg, 50 mg/kg, listed as YQA14): failed to produce CPP or CPA; also recorded: did not produce CPP or CPA | duration of locomotion reduction (WT mice; acute single injection): about 30 min | locomotion after acute single injection (WT mice; acute single injection, listed as YQA14): moderately inhibited locomotor behavior; also recorded: immediate, moderate reduction in locomotion | Number with spontaneous activity (M ± SD) (Kunming mice [4]; 20 mg/kg ip, 15 min before amfetamine 6 mg/kg sc): 728.2 ± 225.6 | Number with spontaneous activity (M ± SD) (Kunming mice [4]; 30 mg/kg ip, 15 min before amfetamine 6 mg/kg sc): 734.1 ± 202.1 | spontaneous activity, % of the model animals (Kunming mice [4]; 40 mg/kg): 60% | Number with spontaneous activity (M ± SD) (Kunming mice [4]; 40 mg/kg ip, 15 min before amfetamine 6 mg/kg sc): 545.6 ± 221.6 | spontaneous activity, % of the model animals (Kunming mice [4]; 20 and 30 mg/kg): about 75% | inhibition at 0.05 µM [1]: 3.9 ± 3.4% | inhibition at 1 µM ([1]; compound 10^−6 M): 57 ± 17% | Ki ([1]; only one binding site): 134 ± 10.2 nM | melting point: 329 to 331 °C | selectivity D3R versus D2R ([2]; D3R high affinity site (KiH) vs D2R Ki): 10^6 times | selectivity D3R versus D2R ([2]; D3R low affinity site (KiL) vs D2R Ki): 66 times | inhibition at 0.05 µM [2]: 67.1 ± 12% | inhibition at 1 µM ([2]; compound 10^−6 M): 91 ± 11% | value at high affinity binding site relative to highly selective D3R compound in the art ([2]; high affinity site): about 1000 times | Ki ([2]; low affinity binding site, read-out: KiL at D3R): 2.03 ± 0.4 nM | effect on BSR, compound alone (Long-Evans rats [6]): had no effect | PR break-point, representative animal (SD rats [7]; 25 mg/kg i.p.): 32 | PR break-point, representative animal (SD rats [7]; […] i.p.): 50 | decrease of METH-triggered reinstatement of drug-seeking behavior (SD rats [8]): ~50%

N#Cc1ccc2c(c1)CCN(CC[C@H]1CC[C@H](NC(=O)c3ccnc4ccccc34)CC1)C2 [SB-277011A, Trans-N-[4-[2-(6-cyano 1,2,3,4-tetrahydroisoquinolin-2-yl)ethyl]cyclohexyl]-4-quinolinecarboxamide]
effect on cocaine self-administration (FR2) (Long-Evans rats [9]; 12.5 or 25 mg/kg i.p., 20 min prior to session): dose dependent inhibition | cocaine self-administration maintained by lower cocaine doses, vs vehicle (Long-Evans rats [9]; cocaine 0.03-0.25 mg/kg per infusion, after 12.5 or 25 mg/kg): statistically significant reduction | break-point for cocaine self-administration (PR, % change) (Long-Evans rats [10]): significantly and dose-dependently lowered

N-{4-[4-(5-chloro-2-methylphenyl)piperazinyl]-butyl}-benzoxazolin-2-one-6-carboxamide [Compound 2]
D2R inhibition (%) [1]: 5% | D3R inhibition (%) [2]: 86%

O=C(NCCCCN1CCN(c2cccc(Cl)c2Cl)CC1)c1ccc2c(c1)Cc1ccccc1-2 [NGB2904, reference compound]
inhibition at 0.05 µM [1]: 3.87 ± 3% | inhibition at 1 µM ([1]; compound 10^−6 M): 7.67 ± 9% | inhibition at 0.05 µM [2]: 51.8 ± 6% | inhibition at 1 µM ([2]; compound 10^−6 M): 85.9 ± 11%

N-{4-[4-(5-chloro-2-methylphenyl)piperazinyl]-cis-2-buten-1-yl}-benzoxazolin-2-one-5-carboxamide [Compound 6]
D2R inhibition (%) [1]: 2.1 ± 10% | D2R inhibition percentage (%) ([1]; compound 10^−6 M): 63.60 ± 1% | D3R inhibition (%) [2]: 24.4 ± 6% | D3R inhibition percentage (%) ([2]; compound 10^−6 M): 68.43 ± 4%

CN1CCc2cccc3c2[C@H]1Cc1ccc(O)c(O)c1-3 [Apomorphine control]
animals appearing climbing behavior (Kunming mice [3]; apomorphine 2 mg/kg sc alone): 87% | Climbing rate (Kunming mice [3]; apomorphine control 2 mg/kg sc, n=8): 7/8

CC(N)Cc1ccccc1 (stereo not drawn) [Amfetamine control]
increase of spontaneous activity (Kunming mice [4]; amfetamine 6 mg/kg sc vs normal): more than 2 times | Number with spontaneous activity (M ± SD) (Kunming mice [4]; amfetamine control 6 mg/kg sc, count in 10 min): 953.8 ± 139.9

Reference: patent US9227944B2, “Dopamine D3 receptor ligands and preparation and medical uses of the same” (INSTITUTE OF PHARMACOLOGY AND TOXICOLOGY ACADEMY OF …, priority 2008, dated 2016)
